Columns and labels:
Assay type in all cases: cell-based
IL-6 = IL-6 ELISA in LPS-activated primary mouse peritoneal macrophages; settings: LPS 100 ng/mL; NDX1 and NDX2 0.01, 0.1, 1 mM; NAG 0.1 and 1 mM; n=8
Procedure: (§1) • 1. Non treatment (NT) • 2. LPS 100 ng/mL • 3. LPS 100 ng/mL+NDX1 dose1* • 4. LPS 100 ng/mL+NDX1 dose2* • 5. LPS 100 ng/mL+NDX1 dose3* • 6. LPS 100 ng/mL+NDX2 dose1 • 7. LPS 100 ng/mL+NDX2 dose2 • 8. LPS 100 ng/mL+NDX2 dose3 • 9. LPS 100 ng/mL+NAG dose2 • 10. LPS 100 ng/mL+NAG dose3 (*dose 1, 2, 3 were selected as low, middle and high dose with no cytotoxicity from the cytotoxic assay)
(§2) The peritoneal macrophages were isolated from peritoneal cavity, and cultured in Dulbecco's modified Eagle's medium (DMEM, Gibco BRL, Gaithersburg, MD) supplemented with 10% fetal bovine serum (FBS) (Hyclone Laboratories, Logan, VT) and 100 IU/mL penicillin G and 100 µg/mL streptomycin, in a humidified atmosphere of 5% carbon dioxide at 37° C. Cells will grow on a 96-well plate and co-treated with 100 ng/ml LPS (Sigma-Aldrich) 0.5 hours after addition of BNAGs and NAG. Twenty-four hours later, the cell number was counted by using the WST-1 kit (Fisher Scientific). After removal of the supernatant, […] new medium was added into each cell. […] Each sample was determined at 450 nm on a microplate reader.
(§3) The amounts of IL-6 and TNFα were measured by a commercial ELISA kit (Sigma-Aldrich), following the instructions provided by the manufacturer. […] The resultant solutions were read at 450 nm on a microplate reader.

mouse iNOS = experiment: Western blot of iNOS expression in LPS-activated RAW264.7 macrophages; settings: LPS 100 ng/mL; NDX1 0.1 and 1 mM, NDX2 and NAG 0.5 and 5 mM
Procedure: Mouse RAW264.7 macrophage cell line (ATCC; Manassas, VA, USA) was maintained in DMEM culture medium containing 10% FBS and 1% antibiotic mix. For cell treatment, the test drugs at different doses were added to the culture 0.5 h prior to addition of 100 ng/mL LPS (Sigma-Aldrich Co., St Louis, MO, USA) and then cells were co-treated with LPS for 24 hours.
The cellular proteins were prepared from cells growing on a 6-well plate (approximately 500,000/well) using a commercial cell lysis buffer (Thermo Scientific). Then the protein concentration was determined using the Bradford protein assay kit (Bio-Rad, Hercules, CA, USA). The samples containing 100 μg proteins were run on 10% SDS-polyacrylamide gels at a […] and electro-transferred to nitrocellulose membranes (Thermo Scientific) at a constant voltage of 10 V overnight. […] Using the magic wand tool from the tool palette, the area of each band was selected, and the mean histogram were recorded and then charted. […]

[1] = tested on: mouse macrophage cell line RAW264.7 cells; experiment: WST-1 cytotoxicity assay in RAW264.7 cells; settings: concentrations up to 5 mM, 24 h, n=8
Procedure: Mouse RAW264.7 macrophage cell line (ATCC; Manassas, VA, USA) was maintained in DMEM culture medium containing 10% FBS and 1% antibiotic mix. For cell treatment, the test drugs at different doses were added to the culture 0.5 h prior to addition of 100 ng/mL LPS (Sigma-Aldrich Co., St Louis, MO, USA) and then cells were co-treated with LPS for 24 hours. Macrophages in the control group and the treatment groups was seeded on a 96-well plate for 24 hrs and the cell number was counted using the WST-1 kit (Fisher Scientific). After removal of the supernatant, 150 μL of the fresh medium was added into each well. Then 15 μL of the Cell Proliferation Reagent WST-1 was added and incubated with cells for 3 hrs in dark with a humidified atmosphere of 5% carbon dioxide at 37° C. Each sample was determined at 450 nm on a microplate reader. No drugs were added in the non-treatment group (NT). There were eight repeats in each group (n=8). The experiment was duplicated.

TNFα = TNFα ELISA in LPS-activated primary mouse peritoneal macrophages; settings: LPS 100 ng/mL; NDX1 and NDX2 0.01, 0.1, 1 mM; NAG 0.1 and 1 mM; n=8
Procedure: as §1, §2, §3

Compound: CC(=O)N[C@H]1C(O)O[C@H](CO)[C@@H](O)[C@@H]1O (stereo partly shown) [NAG, N-acetyl glucosamine]
- reduction of IL-6 production (ELISA) (IL-6): could significantly reduce IL-6 and TNFa production
- rank order for inhibition of iNOS expression (western blot) (mouse iNOS): NDX1>NDX2>NAG
- toxicity / cell growth (WST-1) [1]: less toxicity than NDX1
- reduction of TNFa production (ELISA) (TNFα): could significantly reduce IL-6 and TNFa production

— patent US20260191887A1, “METHODS OF TREATING INFLAMMATION” (THERAPEUTIKOS, INC., priority 2022, published 2026)
